Experimental data taken from US20070191299A1, “Extension Of The Expression of Transgenic Proteins By Immunomodulation” (priority 1997, published 2007).

Columns and labels:
[1] = tested on: reporter gene β-galactosidase expression in the liver; assay: Reporter gene (β-galactosidase) expression in the liver after recombinant adenovirus administration (Example 1); format: in vivo, mice
[2] = tested on: antibodies after recombinant adenovirus vector administration; assay: Formation of antibodies after vector administration (Example 1); format: in vivo; conditions: mice; cyclosporin A 50-100 mg/kg/day, DSG 10 mg/kg/day for 21 days after recombinant adenovirus
Experimental: Cyclosporin A (50-100 mg/kg/day) and DSG (10 mg/kg/day) was administered to the mice over a period of 21 days after administration of a recombinant adenovirus (reporter gene β-galactosidase; Bett et al. Proc. Natl. Acad. Sci. USA, 91 (1994), pages 8802-8806).
In the control group, it was possible to detect the formation of antibodies even 5 days after vector administration.

[3] = tested on: human alpha 1-antitrypsin reporter gene expression; assay: Serum level of human α1-antitrypsin reporter after adenovirus administration (Example 2); format: in vivo; parameters: average serum level of human α1-antitrypsin: unit not given here; conditions: NMRI mice
Experimental: (§1) On day 0, all mice were administered-a dose of 1×10^10 adenoviruses via the tail vein. The recombinant adenoviruses carry the gene for human alpha 1-antitrypsin as a reporter gene found in the serum. This gene has proven to be a practicable reporter, since it is not antigenic in the mouse, but nevertheless can be differentiated from murine alpha 1-antitrypsin using a specific antibody. The half-life of the antiprotease is approximately 3-4 days, so that the serum level reflects the current synthesis capacity of the liver very well.
(§2) The total collective was subdivided into five groups of 4 animals each, which were treated as follows: • 1st group: control group—no immunosuppressant treatment, administration of saline solution i.p. for the period of 5 days after virus administration. • 2nd . group: FK 506 group—administration of 1 mg/kg/day of FK 506 i.p. beginning 1 day before virus administration and then for a period of 5 days. • 3rd group: cyclosporin A group—administration of 20 mg/kg/day i.p. beginning 1 day before virus administration and then for a period of 5 days. • 4th group: DSG group—administration of 10 mg/kg/day i.p. beginning 1 day before virus administration and then for the period of 5 days. • 5th group: DSG++ group—administration of 10 mg/kg/day i.p. beginning 1 day before virus administration and then daily for the period of five days and then twice weekly for the period of 150 days.
(§3) NMRI mice were used, since these mice, due to their genetic heterogeneity, develop an immunological reaction pattern which approaches that of a human population more closely than pure inbred strains; the price is an increased variability in the immunological reactivity. In spite of this, the individual groups develop significant reaction patterns.

[4] = tested on: antibody load against viral proteins; assay: Mean antibody titer against viral proteins after adenovirus administration (Example 2); format: in vivo; conditions: NMRI mice
Experimental: as §1, §2, §3
The quantitative factor 15 days after discontinuing DSG is approximately 1.8. Continuous treatment (2× weekly) is no longer able to increase this effect dramatically. […] Even the transient administration of DSG reduces the antibody response in comparison with the control by more than 60% with, at the same time, a markedly positive effect on expression.

[5] = mice treated with DSG only for 5 days after vector administration, 42nd day after vector administration
[6] = day 5, i.p. from 1 day before virus then for 5 days (FK 506 1, cyclosporin A 20, DSG 10 mg/kg/day)
[7] = day 10, i.p. from 1 day before virus then for 5 days (FK 506 1, cyclosporin A 20, DSG 10 mg/kg/day)
[8] = day 20, i.p. from 1 day before virus then for 5 days (FK 506 1, cyclosporin A 20, DSG 10 mg/kg/day)
[9] = day 30, DSG++ group: 10 mg/kg/day i.p. from 1 day before virus, daily for five days, then twice weekly for 150 days
[10] = day 30, i.p. from 1 day before virus then for 5 days (FK 506 1, cyclosporin A 20, DSG 10 mg/kg/day)
[11] = day 60, i.p. from 1 day before virus then for 5 days (FK 506 1, cyclosporin A 20, DSG 10 mg/kg/day)
[12] = day 100, DSG++ group: 10 mg/kg/day i.p. from 1 day before virus, daily for five days, then twice weekly for 150 days
[13] = day 100, i.p. from 1 day before virus then for 5 days (FK 506 1, cyclosporin A 20, DSG 10 mg/kg/day)
[14] = day 150, DSG++ group: 10 mg/kg/day i.p. from 1 day before virus, daily for five days, then twice weekly for 150 days
[15] = day 150, i.p. from 1 day before virus then for 5 days (FK 506 1, cyclosporin A 20, DSG 10 mg/kg/day)
[16] = day 200, DSG++ group: 10 mg/kg/day i.p. from 1 day before virus, daily for five days, then twice weekly for 150 days
[17] = day 200, i.p. from 1 day before virus then for 5 days (FK 506 1, cyclosporin A 20, DSG 10 mg/kg/day)

Cl.Cl.Cl.N=C(N)NCCCCCCC(=O)NC(O)C(=O)NCCCCNCCCN (stereo not shown) [DSG, 1-amino-19-guanidine-11-hydroxy-4,9,12-triazanondecane-10,13-dione trihydrochloride]
proportion of animals with expression still measurable [1, 5]: approximately 50%
reporter gene expression relative to the maximal expression [1, 5]: approximately 10%
reporter gene expression after discontinuing the immunosuppressants ([1]; mice, 21 days after discontinuing 21-day treatment (42 days after vector administration)): a massive gene expression was still detectable
reporter gene expression in the liver over the treatment period ([1]; mice, cyclosporin A 50-100 mg/kg/day, DSG 10 mg/kg/day for 21 days after recombinant adenovirus, treatment period of 21 days): continues undecreased
antibody production [2]: completely eliminated
effect on antitrypsin expression ([3]; 5-day treatment with DSG): marked increase and prolongation of antitrypsin expression
quantitative factor (transgenic expression product of immunosuppressed group / nonimmunosuppressed control group) ([3]; 15 days after discontinuing DSG (5-day treatment, 10 mg/kg/day i.p.)): approximately 1.8
expression with continuous treatment compared with transient administration ([3]; continuous DSG treatment (2× weekly) versus transient administration): only slightly increased
average serum level of human α1-antitrypsin ([3]; day 5, DSG++ group: 10 mg/kg/day i.p. from 1 day before virus, daily for five days, then twice weekly for 150 days): 2775000
average serum level of human α1-antitrypsin [3, 6]: 2775000
average serum level of human α1-antitrypsin ([3]; day 10, DSG++ group: 10 mg/kg/day i.p. from 1 day before virus, daily for five days, then twice weekly for 150 days): 677500
average serum level of human α1-antitrypsin [3, 7]: 1560000
average serum level of human α1-antitrypsin ([3]; day 20, DSG++ group: 10 mg/kg/day i.p. from 1 day before virus, daily for five days, then twice weekly for 150 days): 1178750
average serum level of human α1-antitrypsin [3, 8]: 1826250
average serum level of human α1-antitrypsin [3, 9]: 1082500
average serum level of human α1-antitrypsin [3, 10]: 1001250
average serum level of human α1-antitrypsin ([3]; day 60, DSG++ group: 10 mg/kg/day i.p. from 1 day before virus, daily for five days, then twice weekly for 150 days): 297500
average serum level of human α1-antitrypsin [3, 11]: 213500
average serum level of human α1-antitrypsin [3, 12]: 68750
average serum level of human α1-antitrypsin [3, 13]: 51750
average serum level of human α1-antitrypsin [3, 14]: 17125
average serum level of human α1-antitrypsin [3, 15]: 13125
average serum level of human α1-antitrypsin [3, 16]: 14350
average serum level of human α1-antitrypsin [3, 17]: 10625
reduction of antibody load against viral proteins ([4]; continuous DSG treatment (2× weekly), after 150 days): approximately 90%
Mean antibody titer [4, 9]: 13005
Mean antibody titer [4, 10]: 26310
Mean antibody titer [4, 12]: 11251
Mean antibody titer [4, 13]: 31029
Mean antibody titer [4, 14]: 7335
Mean antibody titer [4, 15]: 25149
Mean antibody titer [4, 16]: 9669
Mean antibody titer [4, 17]: 20586
reduction of antibody response in comparison with the control ([4]; transient administration of DSG (5 days)): more than 60%

C=CC[C@@H]1/C=C(\C)C[C@H](C)C[C@H](OC)[C@H]2O[C@@](O)(C(=O)C(=O)N3CCCC[C@H]3C(=O)O[C@H](/C(C)=C/[C@@H]3CC[C@@H](O)[C@H](OC)C3)[C@H](C)[C@@H](O)CC1=O)[C@H](C)C[C@@H]2OC [FK 506]
average serum level of human α1-antitrypsin [3, 6]: 1725000
average serum level of human α1-antitrypsin [3, 7]: 1278750
average serum level of human α1-antitrypsin [3, 8]: 376250
average serum level of human α1-antitrypsin [3, 10]: 17475
average serum level of human α1-antitrypsin [3, 11]: 4258
average serum level of human α1-antitrypsin [3, 13]: 313
average serum level of human α1-antitrypsin [3, 15]: 1.5
average serum level of human α1-antitrypsin [3, 17]: 1.5
Mean antibody titer [4, 10]: 65536
Mean antibody titer [4, 13]: 43832
Mean antibody titer [4, 15]: 25149
Mean antibody titer [4, 17]: 17710
